Experiment [1] deals with sDMA methylation in bone marrow (surrogate tissue). The experiment is described as follows: sDMA Western blot of bone marrow samples from Z-138 efficacy study. It is filed as in vivo. As to conditions: bone marrow harvested on day 21. In general terms: Immunoblotting shows a protein as a band on a membrane.
Experiment [2] relates to Mino. Put plainly: Long-term proliferation (LTP) assay. Format: cell-based. As to conditions: Homo sapiens.
In experiment [3] the test system is cellular methylation (symmetric di-methyl arginine) in Maver-1 cells. Put plainly: In Cell Western (ICW) methylation assay, SYM11 antibody. It is filed as cell-based. As to conditions: Homo sapiens, Maver1, 96 h, 4 days of treatment, n=1. How it is done: [Worded in the source for another cell line; this cell line is reported under the same test.] Percent inhibition was determined and IC50 curves were generated using triplicate wells per concentration of compound. IC50 values were calculated using GraphPad Prism using a 4-parametric fit of the normalized dose response curves with the top fixed to 100%. Z-138 cells were seeded in assay medium at a concentration of 50,000 cells per mL to a 384-well cell culture plate with 50 μL per well. Compound (100 nL) from 384 well source plates was added directly to 384 well cell plate. Plates were incubated at 37° C., 5% CO2 for 96 hours. After four days of incubation, 40 μL of cells from incubated plates were added to poly-d-lysine coated 384 well culture plates (BD Biosciences 356697). Plates were incubated at room temperature for 30 minutes then incubated at 37° C., 5% CO2 for 5 hours. After the incubation, 40 μL per well of 8% paraformaldehyde in PBS (16% paraformaldahyde was diluted to 8% in PBS) was added to each plate and incubated for 30 minutes. Plates were transferred to a Biotek 405 plate washer and washed 5 times with 100 μL per well of wash buffer (1×PBS with 0.1% Triton X-100 (v/v)). […] The average of the ratio values for each control type was calculated and used to determine the percent inhibition for each test well in the plate. […] Percent inhibition was determined and IC50 curves were generated using triplicate wells per concentration of compound. […]

In experiment [4] the test system is Z-138 xenograft model. Put plainly: 21 day mantle cell lymphoma xenograft study: TGI and tumor methyl mark. It is filed as in vivo. As to conditions: Z-138 efficacy study; all dose groups tested; day 21. How it is done:
Data presented in this example were determined after analysis of 21 day samples of mantle cell lymphoma tumors. Cmin PK samples were taken prior to the last dose on day 21. Tumors were excised, weighed and processed for methyl mark. Methyl mark reduction was measured in tumor samples and is shown as percent of vehicle control (POC). […] Tumor growth inhibition was determined using tumor volume reduction at day 21 expressed as a percent of POC. In vivo inhibition curves were also generated and IC50 values determined. Plasma levels from each group are averaged from 5 animals. […] The average body weight loss (BWL) in all groups was <6%. All doses tested show >50% TGI. […] The average BWL in all groups was <4%. The average BWL in all groups was <8%, except in the 100 mg/kg does group were 4 animals exceeded BWL of 15%.

Experiment [5] relates to Z-138 cells overexpressing full length (FL) MDM4. The experiment is described as follows: Cell cycle analysis of transduced Z138 cell lines. The following applies: 50 nM or 500 nM; 2, 3, or 4 days. It is filed as cell-based, Human. How it is done:
1×10^6 Z138 cells were seeded in a 6-well tissue culture dish in a volume of 3 mL IMDM+10% horse serum per well. Lentiviruses (MDM4 or EGFP in pLEX vector) were prepared as previously described or purchased from Santa Cruz Biotechnology (cat. # sc-29435-V and sc-108080 for p53 shRNA or scrambled shRNA lentiviruses, respectively). Lentiviral particles were added to seeded cells at […] and supplemented with polybrene at 8 μg/mL. 6-well plates were sealed with Parafilm and spun at 1000×g for 90 minutes at 37° C. for lentiviral treatment. The contents of each well were then collected into separate 15 mL conical tubes and spun at 1000×g for 5 minutes. Supernatant (containing lentivirus and polybrene) was discarded and the cell pellet was resuspended in 3 mL of IMDM+10% horse serum. […]
Transduction efficiency was evaluated for EGFP-transduced cells using fluorescence microscopy. […]
Cells were seeded at 250,000 cells/well in 6-well tissue culture dishes in a volume of 3 mL IMDM+10% horse serum (supplemented with 0.5 μg/mL puromycin for transduced cell lines). […] Pellets were frozen at −80° C. until ready to process. […]
Samples were processed by FACS on a Becton Dickinson FACSCalibur machine. The percentage of cells in each cell cycle stage was determined using the cell cycle function on the gated single cell population with FlowJo V10 software.

The IC50 is the concentration at which inhibition is half-maximal. In general, IC90 refers to the concentration needed for an effect of 90%.

Molecules are shown by their SMILES. Read-outs that look alike come from different tables or passages of the source.

As for `CC(=O)N1CCC(Nc2cc(C(=O)NC[C@H](O)CN3CCc4ccccc4C3)ccn2)CC1` [Formula B], the “levels of sDMA methylation in bone marrow” value in experiment [1] is recorded as “More of a dose-dependent response”. Besides, the IC50 in experiment [2] (264 h, 11-day treatment, N = 1, read-out: Formula B LTP IC50) was 119 nM; in experiment [2] (Table 3, read-out: LTP IC50), 64.6 nM; in experiment [3], 1.9 nM. Besides, the IC90 in experiment [2] (264 h, 11-day treatment, N = 1, read-out: Formula B LTP IC90) was found to be 611 nM. In addition, the “methyl mark in tumors (sDMA Western blot)” value in experiment [4] was “completely removed”.

`O=C(NC[C@H](O)CN1CCc2ccccc2C1)c1ccnc(NC2CCC2)c1` [Formula C]: in experiment [5], the “sensitivity of cells overexpressing full length (FL) MDM4 to PRMT5 inhibition” value is reported as “less sensitive”.

These data come from US10653693B2, “PRMT5 inhibitors and uses thereof” (Epizyme, Inc., priority 2014, dated 2020).
